This note sets out measurements from patent publication EP0603240B1, “SAFENING HERBICIDAL PYRAZOLYLSULFONYLUREAS” (priority 1991, dated 1993).

What all share (format): in vivo
In assay [1] the test system is corn. The assay can be described thus: Example 9, Procedure II: Herbicide No. 1 + pretilachlor (No. 13) with antidotes. As to the method: (§1) Containers were filled and compacted with a fumigated silt loam top soil to a depth of about 1.3 cm from the top of the container. A first container was designated as an untreated control, a second container was designated as a herbicide control, and a third container was designated as a herbicide + antidote test container. Each of the containers was seeded with a crop species. A measured amount of herbicide dispersed or dissolved in acetone was applied to a measured quantity of soil. To this same quantity of soil treated with herbicide, there was added a measured amount of antidote dispersed or dissolved in acetone. The quantity of soil treated with the herbicide and antidote was thoroughly mixed to incorporate the herbicide and antidote in the soil uniformly. The seed bed in the third container of soil was covered with the soil treated with the herbicide and antidote and the container was leveled. For each test series, the seed beds of the first and second containers were likewise covered by soil layers. the cover layer of the first container was not treated with herbicide or antidote.
(§2) The containers were then placed on a bench in a greenhouse and sub-irrigated as required for the duration of the test. […] Plant response is measured in terms of percent injury. Antidote efficacy is indicated as the difference in plant injury by the herbicide(s) without the antidote and with the antidote.
(§3) This procedure is the same as Procedure I, but modified in the manner that after incorporation of the chemicals (herbicide and antidote) the containers with the covered seedbed were treated with an initial overhead irrigation equivalent to 0.6 cm rainfall, then subsequently sub-irrigated as required on greenhouse benches.
In this example the safening effect on a composition comprising Herbicide No. 1 and another leading rice herbicide, i.e., Herbicide No. 13, was investigated using the same antidotes and test procedure described in the preceding example. Herbicide No. 13 is pretilachlor, active ingredient used in the commercial rice herbicides RIFIT®, SOFIT® and SOFIT® SUPER.

For assay [2], the system named is barnyardgrass (Echinochloa crusgalli). The assay can be described thus: Example 8, Procedure II: Herbicide No. 1 + butachlor (No. 9) with antidotes. How it is done: as §1, §2, §3
(§4) In the series of greenhouse tests described below, for routine screening purposes the herbicide/antidote compositions were tested in crop/weed combinations involving corn as the crop and either or both of the weeds barnyardgrass (Echinochloa crusgalli), a monocotyledonous weed, and velvetleaf (Abutilon theophrasti), a dicotyledonous weed. In the tables below, these weeds are indicated by the symbols "BYG" and "VL", respectively.
(§5) In this test, the efficacy of the same five antidotes used in Examples 6 and 7 was investigated in compositions comprising Herbicide No. 1 and as a co-herbicide, butachlor (Herbicide No. 9), active ingredient in MACHETE® herbicide, a leading commercial rice herbicide. The test procedure used in this example was the same as that in Examples 6 and 7.

Assay [3] has as its system velvetleaf (Abutilon theophrasti). Described as above. As to the method: as §1, §2, §3, §4, §5
Assay [4] relates to corn. The assay can be described thus: Example 22: retest of Example 21 at reduced greenhouse temperatures. The following applies: Table 22. How it is done: as §1, §2, §3
(§6) In this example, tests were conducted as in the preceding Examples 18-20, except here the co-herbicidal component was SUTAN® PLUS, a commercial product comprising as the active herbicidal ingredient the compound butylate (Herbicide No. 10) and an antidote […] (Antidote No. 1). Again, the antidotal compounds herein were Nos. 1, 2, 7, 13 and 15. Procedure II was used.
The experiments in this example were designed as a retest of those described in Example 21 in view of the uncharacteristically poor corn safety and weed control, believed to have resulted from unseasonably high temperatures in the greenhouse. Accordingly, temperatures were reduced for these tests.

Assay [5] has as its system barnyardgrass (Echinochloa crusgalli). Put plainly: Example 18, Procedure II: Herbicide No. 1 + ERADICANE (EPTC + R-25788) with auxiliary antidotes. How it is done: as §1, §2, §3, §4
(§7) In the test reported in this example, the herbicidal composition was similar to that used in Example 16 in that Herbicide No. 1 was combined with EPTC (Herbicide No. 4) as a co-herbicide and the antidotes included Nos. 1, 2, 7, 13 and 15. However, in this test the EPTC was introduced as a formulation of ERADICANE (EPTC + the antidote R-25788, i.e., Antidote No. 1) at an application rate of 8.96 kg/ha. Thus, in this test two antidotes were present, viz. R-25788 and one of the auxilliary antidotes, No. 2, 13 and 15.
(§8) Test procedures were those of Procedure II above.

The test system of assay [6] is velvetleaf (Abutilon theophrasti). The description is as above. How it is done:
as §1, §2, §3, §4, §7, §8

For assay [7], the system named is barnyardgrass (Echinochloa crusgalli). The assay can be described thus: Example 19, Procedure II: Herbicide No. 1 + ERADICANE EXTRA with added antidotes. How it is done: as §1, §2, §3, §4, §7
(§9) The test reported in this example was performed in the same manner and with the same antidotes used in Example 18, the only difference being the substitution of the commercial herbicidal product ERADICANE® EXTRA for ERADICANE®. ERADICANE EXTRA is a formulation containing both an antidote, i.e., R-29148 (Antidote No. 5 herein), and an extender, dietholate.

In assay [8] the test system is velvetleaf (Abutilon theophrasti). Described as above. How it is done: as §1, §2, §3, §4, §7, §9
The test system of assay [9] is corn. The assay can be described thus: Example 21, Procedure II: Herbicide No. 1 + SUTAN PLUS (butylate + antidote) with antidotes. As to the method:
as §1, §2, §3, §6

The mark [10] stands for this setting: Herbicide No.1 0.14 + No.9 2.24 kg/ha, no antidote.
The mark [11] stands for this setting: Herbicide No.1 0.14 kg/ha alone.
The mark [12] stands for this setting: Herbicide No.1 0.56 + No.9 (butachlor) 2.24 kg/ha, no antidote.
[13] abbreviates: Herbicide No.1 0.56 kg/ha alone.
Setting [14] is: Herbicide No.1 0.56 kg/ha + ERADICANE 8.96 kg/ha, no added antidote.
The mark [15] stands for this setting: Herbicide No.1 1.12 kg/ha + ERADICANE 8.96 kg/ha, no added antidote.
Where [16] appears, read: Herbicide No.1 1.12 kg/ha alone.
[17] abbreviates: Herbicide No.1 0.56 kg/ha + ERADICANE EXTRA 8.96 kg/ha, no added antidote.
Where [18] appears, read: Herbicide No.1 1.12 kg/ha + ERADICANE EXTRA 8.96 kg/ha, no added antidote.
Where [19] appears, read: Herbicide No.1 0.56 kg/ha + ERADICANE 8.96 kg/ha, antidote 2.24 kg/ha.
Where [20] appears, read: Herbicide No.1 0.56 kg/ha + ERADICANE 8.96 kg/ha, antidote 8.96 kg/ha.
Where [21] appears, read: Herbicide No.1 1.12 kg/ha + ERADICANE 8.96 kg/ha, antidote 2.24 kg/ha.
Where [22] appears, read: Herbicide No.1 1.12 kg/ha + ERADICANE 8.96 kg/ha, antidote 8.96 kg/ha.
[23] abbreviates: Herbicide No.1 0.56 kg/ha + ERADICANE EXTRA 8.96 kg/ha, antidote 2.24 kg/ha.
The mark [24] stands for this setting: Herbicide No.1 0.56 kg/ha + ERADICANE EXTRA 8.96 kg/ha, antidote 8.96 kg/ha.
Where [25] appears, read: Herbicide No.1 1.12 kg/ha + ERADICANE EXTRA 8.96 kg/ha, antidote 2.24 kg/ha.
The mark [26] stands for this setting: Herbicide No.1 1.12 kg/ha + ERADICANE EXTRA 8.96 kg/ha, antidote 8.96 kg/ha.
Where [27] appears, read: Herbicide No.1 0.14 + No.9 2.24 kg/ha + antidote 2.24 kg/ha.
Where [28] appears, read: Herbicide No.1 0.14 + No.9 2.24 kg/ha + antidote 8.96 kg/ha.
[29] abbreviates: Herbicide No.1 0.56 + No.9 2.24 kg/ha + antidote 2.24 kg/ha.
The mark [30] stands for this setting: Herbicide No.1 0.56 + No.9 2.24 kg/ha + antidote 8.96 kg/ha.

Consider `CC1(C)OC(c2ccco2)CN1C(=O)C(Cl)Cl` (stereo not drawn) [Antidote No. 15, Oxazolidine, 3-(dichloroacetyl)-5-(2-furanyl)-2,2-dimethyl], for which the “safening of corn, assessment in words” value with corn [1] (Herbicide Nos. 1 and 13, Table 9) is listed as “commercial-level safening of corn”.

With `COC(=O)c1c(Cl)nn(C)c1S(=O)(=O)NC(=O)Nc1nc(OC)cc(OC)n1` [Herbicide No. 1], the injury to corn with corn [1] (Herbicide No. 1 0.56 kg/ha + Herbicide No. 13 2.24 kg/ha in combination, no antidote) is listed as 65%. The “% Injury BYG” value turned out to be 100% in assay [2] (setting [10]), 55% in assay [2] (setting [11]), 100% in assay [2] (setting [12]) and 93% in assay [2] (setting [13]). Besides, the “% Injury VL” value in [3] (setting [10]) came to 70%; in assay [3] (setting [11]), 70%; in [3] (setting [12]), 85%; in assay [3] (setting [13]) it was 85%. In addition, the “% Injury Corn” value was found to be 55% in the assay with corn [4] (Herbicide No.1 0.56 Kg/ha + SUTAN + 8.96 Kg/ha, no added antidote); 60% in the assay on corn [4] (Herbicide No.1 0.56 Kg/ha alone); 60% with corn [4] (Herbicide No.1 1.12 Kg/ha + SUTAN + 8.96 Kg/ha, no added antidote); 65% in the assay on corn [4] (Herbicide No.1 1.12 Kg/ha alone).

With `COC(=O)c1c(Cl)nn(C)c1S(=O)(=O)NC(=O)Nc1nc(OC)cc(OC)n1` [No.1], the “% Injury BYG” value in [5] (setting [14]) worked out at 90%; in assay [5] (setting [13]), 30%; in [5] (setting [15]), 85%; in [5] (setting [16]), 55%; in assay [7] (setting [17]), 95%; in assay [7] (setting [13]), 30%. Moreover, the “% Injury BYG” value came to 95% in [7] (setting [18]) and 70% in [7] (setting [16]). Besides, the “% Injury VL” value is given as 80% in [6] (setting [14]); 45% in assay [6] (setting [13]); 75% in assay [6] (setting [15]); 55% in assay [6] (setting [16]); 80% in [8] (setting [17]); 50% in assay [8] (setting [13]). The “% Injury VL” value in assay [8] (setting [18]) was 85%; in assay [8] (setting [16]), 65%. Moreover, the “% Injury Corn” value is 10% with corn [9] (Herbicide No.1 0.56 kg/ha + SUTAN + 8.96 kg/ha, no added antidote); 0% in the assay on corn [9] (setting [13]); 5% with corn [9] (Herbicide No.1 1.12 kg/ha + SUTAN + 8.96 kg/ha, no added antidote); 30% in the assay with corn [9] (setting [16]).

Turning to `O=C1OC(=O)c2cccc3cccc1c23` [compound 2], the “% Injury BYG” value in [5] (setting [19]) amounted to 93%; in assay [5] (setting [20]) it was 85%; in [5] (setting [21]) it was 85%; in assay [5] (setting [22]), 95%; in assay [7] (setting [23]), 90%; in assay [7] (setting [24]), 90%. Moreover, the “% Injury BYG” value in assay [7] (setting [25]) was determined as 85%; in [7] (setting [26]) it was 85%; in [2] (setting [27]), 99%; in assay [2] (setting [28]) it was 99%; in [2] (setting [29]), 99%; in assay [2] (setting [30]), 98%. In addition, the “% Injury VL” value in assay [6] (setting [19]) is reported as 80%; in [6] (setting [20]), 93%; in assay [6] (setting [21]), 70%; in assay [6] (setting [22]), 75%; in [8] (setting [23]), 75%; in assay [8] (setting [24]), 75%. In addition, the “% Injury VL” value is given as 85% in [8] (setting [25]); 75% in [8] (setting [26]); 70% in assay [3] (setting [27]); 75% in assay [3] (setting [28]); 90% in assay [3] (setting [29]); 80% in assay [3] (setting [30]). Besides, the “% Injury Corn” value in the assay on corn [9] (Herbicide No.1 0.56 kg/ha + SUTAN + 8.96 kg/ha, antidote 2.24 kg/ha) is recorded as 10%; in the assay with corn [9] (Herbicide No.1 0.56 kg/ha + SUTAN + 8.96 kg/ha, antidote 8.96 kg/ha), 5%; with corn [9] (Herbicide No.1 1.12 kg/ha + SUTAN + 8.96 kg/ha, antidote 2.24 kg/ha), 0%; in the assay with corn [9] (Herbicide No.1 1.12 kg/ha + SUTAN + 8.96 kg/ha, antidote 8.96 kg/ha), 15%; in the assay with corn [4] (Herbicide No.1 0.56 Kg/ha + SUTAN + 8.96 Kg/ha + antidote 2.24 Kg/ha), 45%; in the assay on corn [4] (Herbicide No.1 0.56 Kg/ha + SUTAN + 8.96 Kg/ha + antidote 8.96 Kg/ha) it was 55%. Further, the “% Injury Corn” value in the assay on corn [4] (Herbicide No.1 1.12 Kg/ha + SUTAN + 8.96 Kg/ha + antidote 2.24 Kg/ha) is recorded as 40%; with corn [4] (Herbicide No.1 1.12 Kg/ha + SUTAN + 8.96 Kg/ha + antidote 8.96 Kg/ha) it was 50%.
